{
  "source": "patent US20250213622A1",
  "about": "(priority 2022, published 2025)",
  "assay_type_in_all_cases": "in vivo, C57BL/6J mice",
  "key": {"[1]": {"system": "Nissl-positive neurons in the substantia nigra pars compacta", "experiment": "Nissl staining, neuron count in substantia nigra pars compacta, subacute MPTP mouse model", "conditions": "for Number of Nissl-positive neurons in the substantia nigra pars compacta: Selegiline 0.5 mg/kg/d i.p.", "method": "(§1) The mice were weighed and recorded, and injected subcutaneously at the back of the neck at 20 mg/kg, once a day for 5 consecutive days. Subsequent experiments were performed on the 1st, 3rd, 7th and 14th days after the last administration.\n(§2) 128 healthy adult mice were randomly divided into six groups according to body weight, including normal control (Sham) group (n=20), MPTP model group (n=28), low-dose Lepalvir (10 U/kg/d) treatment group (n=20), medium-dose Lepalvir (20U/kg/d) treatment group (n=20), high-dose Lepalvir (40 U/kg/d) treatment group (n=20) and positive control drug Selegiline (0.5 mg/kg/d) treatment group (n=20). Among them, mice in the Lepalvir and Selegiline treatment groups were injected with corresponding doses intraperitoneally 1 hour after the first MPTP administration, and continued for 7 or 14 days, once a day. Mice in the MPTP model group were given an equal volume of normal saline (0.1 mL/10 g). Mice in the sham group were only given an equal volume of normal saline (0.1 mL/10 g).\n(§3) On day 7 and day 14 after the last administration of MPTP respectively, half of the mice in each group were selected, anesthetized with 4% chloral hydrate, and perfused with saline +4% PFA to obtain brain tissue. After gradient dehydration in 20% (v/v) and 30% (v/v) sucrose solutions for 3 days respectively, the mouse brain tissue was embedded in OCT glue and frozen, and the Microtome Cryostat (Leica) was used to continuously slice the tissue (20 μm), and the brain slices of the relevant regions were collected, placed in freezing solution (glycerol: 0.01M PBS=1:1) and stored at −80° C. for use.\nNissl bodies are a type of basophilic substance in the cytoplasm that is widely found in various neurons, and thus the number of neurons in the relevant brain regions was calculated by Nissl staining. Staining was performed using the Nissl staining kit.\n(§4) Immunohistochemical positive cells were counted using the Stereo Investigator (MBF bioscience) system and the number of Nissl body-positive cells and TH+ cells in the substantia nigra pars compacta were calculated. […]"}, "[2]": {"system": "subacute MPTP mouse model", "experiment": "Rotarod test, latency, subacute MPTP mouse model", "conditions": "for Latency time: Selegiline 0.5 mg/kg/d i.p.", "method": "as §1, §2\n(§5) Behavioral assessment was performed on the 1st, 3rd, 7th and 14th days after the last administration of MPTP.\nThe rotarod test was used to evaluate the motor balance and limb coordination of mouse. The mouse was placed on the drum of the Rotarod tester, and the speed was set to increase uniformly from 5 rpm/min to 25 rpm/min within 2 minutes. When the mouse fell from the drum to the sensing area below, an infrared sensor would receive the signal and record the time the mouse moved on the drum of the instrument. Before the formal test, three consecutive trainings were required for each mouse. During the test, three consecutive measurements are required, and the average falling time was selected (latency)."}, "[3]": {"system": "TH-positive neurons in the substantia nigra pars compacta", "experiment": "TH (tyrosine hydroxylase) staining, neuron count in substantia nigra pars compacta, subacute MPTP mouse model", "conditions": "for Number of TH-positive neurons in the substantia nigra pars compacta: Selegiline 0.5 mg/kg/d i.p.", "method": "as §1, §2, §3\nTH mainly marks dopaminergic neurons in the substantia nigra pars compacta. […] The midbrain slices were obtained, washed once with 0.01 M PBS for 10 min, and then incubated with 3% H2O2 for 15 min to remove endogenous peroxidase activity. […]\nas §4"}, "[4]": {"system": "subacute MPTP mouse model", "experiment": "Pole climbing test (T-Turn, T-TLA), subacute MPTP mouse model", "conditions": "Selegiline 0.5 mg/kg/d i.p.", "method": "as §1, §2, §5\nThe pole climbing test was used to evaluate the motor coordination function of mouse. The pole used was 1 cm in diameter and 50 cm in height. A wooden ball with a diameter of 1.2 cm was fixed to the top of the pole. The pole was wrapped with anti-slip tape to prevent the mouse from slipping. The mouse was placed on the top of the pole with its head facing up. When the mouse started to […], the timer started and the time it took for the mouse to cross the top of the pole (T-Turn) from the start of the movement and the time it took for the mouse to climb down to the bottom with four paws landing on the ground from the start of the movement (T-TLA) were recoded. Before the formal test, three consecutive trainings were required for each mouse. During the test, three consecutive measurements were required, and the shortest time was selected."}, "[5]": {"system": "subacute MPTP mouse model", "experiment": "Open field test, total movement distance, subacute MPTP mouse model", "conditions": "for Total movement distance in the open field test: Selegiline 0.5 mg/kg/d i.p.", "method": "as §1, §2, §5\nThe open field test was used to evaluate the autonomous movement ability of mouse. The open field apparatus was made of opaque blue plastic and was 60 cm×60 cm×45 cm in size. During the test, each mouse was placed into the box from the central area, and the movement trajectory of each mouse within 5 minutes was recorded at the same time. The total movement distance was calculated using software (Clever Sys Inc., VA, USA). After each mouse was tested, the open field area was wiped with 75% ethanol to prevent the smell of the previous mouse from affecting the next mouse."}, "[6]": {"conditions": "positive control Selegiline 0.5 mg/kg/d, day 7 and 14"}, "[7]": {"conditions": "positive control Selegiline 0.5 mg/kg/d, day 1, 3, 7, and 14"}},
  "note": "Where a name gives a salt, the structure may show the parent alone.",
  "data": [
    {"smiles": "C#CCN(C)[C@H](C)Cc1ccccc1", "note": "[Selegiline, Selegiline hydrochloride]", "values": [
      {"measurement": "Number of Nissl-positive neurons in the substantia nigra pars compacta", "setting": "[1]; Day 7 after last MPTP", "value": "10688 ± 458"},
      {"measurement": "Number of Nissl-positive neurons in the substantia nigra pars compacta", "setting": "[1]; Day 14 after last MPTP", "value": "11024 ± 539"},
      {"measurement": "Effect on MPTP-induced decrease in number of Nissl-stained positive neurons (in words)", "setting": "[1]; [6]", "value": "significantly improved"},
      {"measurement": "Latency time", "setting": "[2]; Day 1 after last MPTP", "value": "160.2 ± 4.8", "unit": "s"},
      {"measurement": "Latency time", "setting": "[2]; Day 3 after last MPTP", "value": "173.1 ± 2.2", "unit": "s"},
      {"measurement": "Latency time", "setting": "[2]; Day 7 after last MPTP", "value": "168.5 ± 3.5", "unit": "s"},
      {"measurement": "Latency time", "setting": "[2]; Day 14 after last MPTP", "value": "166.7 ± 4.2", "unit": "s"},
      {"measurement": "Effect on MPTP-induced shortening of rotarod latency (in words)", "setting": "[2]; [7]", "value": "significantly improved"},
      {"measurement": "Number of TH-positive neurons in the substantia nigra pars compacta", "setting": "[3]; Day 7 after last MPTP", "value": "9578 ± 441"},
      {"measurement": "Number of TH-positive neurons in the substantia nigra pars compacta", "setting": "[3]; Day 14 after last MPTP", "value": "9670 ± 692"},
      {"measurement": "Effect on MPTP-induced decrease in number of TH-positive neurons (in words)", "setting": "[3]; [6]", "value": "significantly improved"},
      {"measurement": "T-TLA", "setting": "[4]; Day 1 after last MPTP", "value": "9.23 ± 0.65", "unit": "s"},
      {"measurement": "T-Turn", "setting": "[4]; Day 1 after last MPTP", "value": "1.57 ± 0.10", "unit": "s"},
      {"measurement": "T-TLA", "setting": "[4]; Day 3 after last MPTP", "value": "5.96 ± 0.49", "unit": "s"},
      {"measurement": "T-Turn", "setting": "[4]; Day 3 after last MPTP", "value": "1.35 ± 0.09", "unit": "s"},
      {"measurement": "T-TLA", "setting": "[4]; Day 7 after last MPTP", "value": "7.61 ± 0.91", "unit": "s"},
      {"measurement": "T-Turn", "setting": "[4]; Day 7 after last MPTP", "value": "1.49 ± 0.14", "unit": "s"},
      {"measurement": "T-TLA", "setting": "[4]; Day 14 after last MPTP", "value": "7.90 ± 1.17", "unit": "s"},
      {"measurement": "T-Turn", "setting": "[4]; Day 14 after last MPTP", "value": "1.49 ± 0.20", "unit": "s"},
      {"measurement": "Total movement distance in the open field test", "setting": "[5]; 1 day after last MPTP", "value": "1269 ± 138", "unit": "mm"},
      {"measurement": "Total movement distance in the open field test", "setting": "[5]; 3 days after last MPTP", "value": "1359 ± 68", "unit": "mm"},
      {"measurement": "Total movement distance in the open field test", "setting": "[5]; 7 days after last MPTP", "value": "684 ± 68", "unit": "mm"},
      {"measurement": "Total movement distance in the open field test", "setting": "[5]; 14 days after last MPTP", "value": "578 ± 51", "unit": "mm"},
      {"measurement": "Effect on MPTP-induced reduction in total distance traveled (in words)", "setting": "[5]; [7]", "value": "significantly improved"}
    ]}
  ]
}
